From ChEMBL document CHEMBL1201862, “PubChem BioAssay data set” (2004)
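Dose response: 5 concentrations. Exposure: 48 h. Format: 96-well plates. Endpoint: linear interpolation; highest concentration if not reached. GI50 is the concentration that inhibits growth by half.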 The source made the active and inactive calls. Cut-off read from the data, not from the text of the source: active = GI50 up to about 1.1 µM and inactive = higher.

What was measured:
Experiment in all cases: inhibition of tumour cell growth, NCI panel, 48 h
NCI-H226 = system: NCI-H226
SN12C = system: SN12C
HT-29 = system: HT-29
OVCAR-4 = system: OVCAR-4
Malme-3M = system: Malme-3M
MDA-N = system: MDA-N
NCI-H522 = system: NCI-H522
HOP-92 = system: HOP-92
PC-3 = system: PC-3
CAKI-1 = system: CAKI-1
A549 = system: A549
RXF 393 = system: RXF 393
M14 = system: M14
DMS-114 = system: DMS-114
SNB-78 = system: SNB-78
SK-OV-3 = system: SK-OV-3
TK-10 = system: TK-10
LOX IMVI = system: LOX IMVI
BT-549 = system: BT-549
OVCAR-8 = system: OVCAR-8

Measured: GI50

CCOC(=O)C(=Cc1ccc(Oc2ccccc2)cc1)C(=O)OCC
inactive: NCI-H226 3.17 µM | SN12C 2.27 µM | HT-29 3.18 µM | OVCAR-4 7.59 µM | Malme-3M 2.56 µM | MDA-N 4.41 µM | NCI-H522 4.22 µM | HOP-92 4.03 µM | PC-3 2.16 µM | CAKI-1 14.1 µM | A549 8.45 µM | RXF 393 1.89 µM | M14 3.82 µM | DMS-114 3.07 µM | SNB-78 5.7 µM | SK-OV-3 7.05 µM | TK-10 7.74 µM | LOX IMVI 1.47 µM | BT-549 1.84 µM | OVCAR-8 2.19 µM
